Experimental data published in ChEMBL document CHEMBL2016493, “Design, synthesis, synergistic antimicrobial activity and cytotoxicity of 4-aryl substituted 3,4-dihydropyrimidinones of curcumin” (Bioorg Med Chem Lett, 2012).
Active and inactive are the calls of the source. The calls are words filed in the database; no cut-off is given here.

Assays:
[1] = system: Salmonella typhimurium; assay: Antibacterial activity against Salmonella typhimurium ATCC 23564 at 160 uM/ml after 24 hrs by kirby-bauer method; type: functional, Salmonella enterica subsp. enterica serovar Typhimurium; conditions: Salmonella enterica, ATCC 23564, 24 h; read-out: IZ
[2] = system: Escherichia coli; assay: Antibacterial activity against Escherichia coli ATCC 35218 at 40 uM/ml after 24 hrs by kirby-bauer method; type: functional; conditions: ATCC 35218, 24 h, read-out: IZ
[3] = system: HCT-116
[4] = system: Trichoderma viride; assay: Antifungal activity against Trichoderma viride MTCC 1107 at 160 uM/ml after 48 hrs by paper disc diffusion method; type: functional; conditions: MTCC 1107, 48 h, read-out: IZ
[5] = system: Trichoderma viride; assay: Antifungal activity against Trichoderma viride MTCC 1107 at 20 uM/ml after 48 hrs by paper disc diffusion method; type: functional; conditions: MTCC 1107, 48 h, read-out: IZ
[6] = system: Staphylococcus aureus; assay: Antibacterial activity against Staphylococcus aureus ATCC 11632 at 20 uM/ml after 24 hrs by kirby-bauer method; type: functional
[7] = system: Aspergillus flavus; assay: Antifungal activity against Aspergillus flavus MTCC 1021 at 40 uM/ml after 48 hrs by paper disc diffusion method; type: functional
[8] = system: Curvularia lunata; assay: Antifungal activity against Curvularia lunata MTCC 581 at 160 uM/ml after 48 hrs by paper disc diffusion method; type: functional; conditions: MTCC 581, 48 h, read-out: IZ
[9] = system: Burkholderia pseudomallei; assay: Antibacterial activity against Burkholderia pseudomallei NTCC 10274 at 20 uM/ml after 24 hrs by kirby-bauer method; type: functional
[10] = system: Aspergillus niger; assay: Antifungal activity against Aspergillus niger MTCC 1108 at 80 uM/ml after 48 hrs by paper disc diffusion method; type: functional
[11] = system: Aspergillus niger; assay: Antifungal activity against Aspergillus niger MTCC 1108 at 20 uM/ml after 48 hrs by paper disc diffusion method; type: functional
[12] = system: Curvularia lunata; assay: Antifungal activity against Curvularia lunata MTCC 581 at 40 uM/ml after 48 hrs by paper disc diffusion method; type: functional; conditions: MTCC 581, 48 h, read-out: IZ
[13] = system: HepG2
[14] = system: Escherichia coli; assay: Antibacterial activity against Escherichia coli ATCC 35218 at 160 uM/ml after 24 hrs by kirby-bauer method; type: functional; conditions: ATCC 35218, 24 h, read-out: IZ
[15] = system: Trichoderma viride; assay: Antifungal activity against Trichoderma viride MTCC 1107 at 40 uM/ml after 48 hrs by paper disc diffusion method; type: functional; conditions: MTCC 1107, 48 h, read-out: IZ
[16] = system: Aspergillus flavus; assay: Antifungal activity against Aspergillus flavus MTCC 1021 at 160 uM/ml after 48 hrs by paper disc diffusion method; type: functional
[17] = system: Aspergillus niger; assay: Antifungal activity against Aspergillus niger MTCC 1108 at 40 uM/ml after 48 hrs by paper disc diffusion method; type: functional
[18] = system: Aspergillus flavus; assay: Antifungal activity against Aspergillus flavus MTCC 1021 at 80 uM/ml after 48 hrs by paper disc diffusion method; type: functional
[19] = system: Burkholderia pseudomallei; assay: Antibacterial activity against Burkholderia pseudomallei NTCC 10274 at 80 uM/ml after 24 hrs by kirby-bauer method; type: functional; conditions: NTCC 10274, 24 h, read-out: IZ
[20] = system: Burkholderia pseudomallei; assay: Antibacterial activity against Burkholderia pseudomallei NTCC 10274 at 160 uM/ml after 24 hrs by kirby-bauer method; type: functional
[21] = system: Burkholderia pseudomallei; assay: Antibacterial activity against Burkholderia pseudomallei NTCC 10274 at 40 uM/ml after 24 hrs by kirby-bauer method; type: functional; conditions: NTCC 10274, 24 h, read-out: IZ
[22] = system: Staphylococcus aureus; assay: Antibacterial activity against Staphylococcus aureus ATCC 11632 at 80 uM/ml after 24 hrs by kirby-bauer method; type: functional; conditions: ATCC 11632, 24 h, read-out: IZ
[23] = system: Salmonella typhimurium; assay: Antibacterial activity against Salmonella typhimurium ATCC 23564 at 20 uM/ml after 24 hrs by kirby-bauer method; type: functional, Salmonella enterica subsp. enterica serovar Typhimurium
[24] = system: Pseudomonas aeruginosa; assay: Antibacterial activity against Pseudomonas aeruginosa ATCC 15499 at 160 uM/ml after 24 hrs by kirby-bauer method; type: functional
[25] = system: Escherichia coli; assay: Antibacterial activity against Escherichia coli ATCC 35218 at 20 uM/ml after 24 hrs by kirby-bauer method; type: functional
[26] = system: Staphylococcus aureus; assay: Antibacterial activity against Staphylococcus aureus ATCC 11632 at 160 uM/ml after 24 hrs by kirby-bauer method; type: functional; conditions: ATCC 11632, 24 h, read-out: IZ
[27] = system: Salmonella typhimurium; assay: Antibacterial activity against Salmonella typhimurium ATCC 23564 at 80 uM/ml after 24 hrs by kirby-bauer method; type: functional, Salmonella enterica subsp. enterica serovar Typhimurium; conditions: Salmonella enterica, ATCC 23564, 24 h; read-out: IZ
[28] = system: QG-56; assay: Cytotoxicity against human QG56 cells after 48 hrs by MTT assay; type: functional, cell-based
[29] = system: Aspergillus niger; assay: Antifungal activity against Aspergillus niger MTCC 1108 at 160 uM/ml after 48 hrs by paper disc diffusion method; type: functional; conditions: MTCC 1108, 48 h, read-out: IZ
[30] = system: Aspergillus flavus; assay: Antifungal activity against Aspergillus flavus MTCC 1021 at 20 uM/ml after 48 hrs by paper disc diffusion method; type: functional
[31] = system: Escherichia coli; assay: Antibacterial activity against Escherichia coli ATCC 35218 at 80 uM/ml after 24 hrs by kirby-bauer method; type: functional; conditions: ATCC 35218, 24 h, read-out: IZ
[32] = system: Curvularia lunata; assay: Antifungal activity against Curvularia lunata MTCC 581 at 20 uM/ml after 48 hrs by paper disc diffusion method; type: functional; conditions: MTCC 581, 48 h, read-out: IZ
[33] = system: Curvularia lunata; assay: Antifungal activity against Curvularia lunata MTCC 581 at 80 uM/ml after 48 hrs by paper disc diffusion method; type: functional; conditions: MTCC 581, 48 h, read-out: IZ
[34] = system: Staphylococcus aureus; assay: Antibacterial activity against Staphylococcus aureus ATCC 11632 at 40 uM/ml after 24 hrs by kirby-bauer method; type: functional
[35] = system: Salmonella typhimurium; assay: Antibacterial activity against Salmonella typhimurium ATCC 23564 at 40 uM/ml after 24 hrs by kirby-bauer method; type: functional, Salmonella enterica subsp. enterica serovar Typhimurium
[36] = system: Trichoderma viride; assay: Antifungal activity against Trichoderma viride MTCC 1107 at 80 uM/ml after 48 hrs by paper disc diffusion method; type: functional; conditions: MTCC 1107, 48 h, read-out: IZ
[37] = system: Pseudomonas aeruginosa; assay: Antibacterial activity against Pseudomonas aeruginosa ATCC 15499 at 40 uM/ml after 24 hrs by kirby-bauer method; type: functional
[38] = system: Pseudomonas aeruginosa; assay: Antibacterial activity against Pseudomonas aeruginosa ATCC 15499 at 20 uM/ml after 24 hrs by kirby-bauer method; type: functional
[39] = system: Pseudomonas aeruginosa; assay: Antibacterial activity against Pseudomonas aeruginosa ATCC 15499 at 80 uM/ml after 24 hrs by kirby-bauer method; type: functional
[40] = Salmonella enterica, ATCC 23564, 24 h, read-out: IZ
[41] = Salmonella enterica subsp. enterica serovar Typhimurium

SMILES | zone of inhibition at 160 µM [1] | zone of inhibition at 40 µM [2] | IC50 [3] | zone of inhibition at 160 µM [4] | zone of inhibition at 20 µM [5] | zone of inhibition at 160 µM [8] | inhibition zone (IZ) [11] | zone of inhibition at 40 µM [12] | IC50 [13] | zone of inhibition at 160 µM [14] | zone of inhibition [15] | inhibition zone (IZ) [17] | zone of inhibition at 80 µM [22] | zone of inhibition at 160 µM [26] | zone of inhibition at 80 µM [27] | IC50 [28] | zone of inhibition at 160 µM [29] | zone of inhibition at 80 µM [31] | zone of inhibition at 20 µM [32] | zone of inhibition at 80 µM [33] | also measured
COc1cc(/C=C/C(=O)C2=C(/C=C/c3ccc(O)c(OC)c3)NC(=S)NC2c2ccc(Cl)cc2)ccc1O (centres undefined) | 22 mm | 9 mm | 50 uM/ml | 24 mm | 18 mm | 15 mm | inactive | 12 mm | 100 uM/ml | 19 mm | 19 mm | inactive | 13 mm | 16 mm | 19 mm | 100 uM/ml | 11 mm | 15 mm | 9 mm | 13 mm | zone of inhibition at 20 µM ([6]; ATCC 11632, 24 h, read-out: IZ): 9 mm; inhibition zone (IZ) [7]: inactive; inhibition zone (IZ) [9]: inactive; zone of inhibition at 80 µM ([10]; MTCC 1108, 48 h, read-out: IZ): 9 mm; zone of inhibition at 160 µM ([16]; MTCC 1021, 48 h, read-out: IZ): 9 mm; inhibition zone (IZ) [18]: inactive; zone of inhibition at 80 µM [19]: 12 mm; zone of inhibition at 160 µM ([20]; NTCC 10274, 24 h, read-out: IZ): 16 mm; zone of inhibition at 40 µM [21]: 9 mm; zone of inhibition at 20 µM [23, 40]: 13 mm; inhibition zone (IZ) [24]: inactive; inhibition zone (IZ) [25]: inactive; inhibition zone (IZ) [30]: inactive; zone of inhibition at 40 µM ([34]; ATCC 11632, 24 h, read-out: IZ): 11 mm; zone of inhibition at 40 µM [35, 40]: 17 mm; zone of inhibition at 80 µM [36]: 22 mm
COc1cc(/C=C/C(=O)C2=C(/C=C/c3ccc(O)c(OC)c3)NC(=O)NC2c2ccc(Cl)cc2)ccc1O (centres undefined) | 11 mm | 11 mm | 100 uM/ml | 18 mm | 15 mm | 22 mm | inactive | 12 mm | 100 uM/ml | 19 mm | 17 mm | inactive | 10 mm | 12 mm | 9 mm | 100 uM/ml | 12 mm | 16 mm | 9 mm | 18 mm | inhibition zone (IZ) [6]: inactive; inhibition zone (IZ) [10]: inactive; inhibition zone (IZ) [37]: inactive; inhibition zone (IZ) [38]: inactive; inhibition zone (IZ) [16]: inactive; inhibition zone (IZ) [20]: inactive; inhibition zone (IZ) [23, 41]: inactive; zone of inhibition at 160 µM ([24]; ATCC 15499, 24 h, read-out: IZ): 9 mm; zone of inhibition at 20 µM ([25]; ATCC 35218, 24 h, read-out: IZ): 9 mm; inhibition zone (IZ) [39]: inactive; inhibition zone (IZ) [34]: inactive; inhibition zone (IZ) [35, 41]: inactive; zone of inhibition at 80 µM [36]: 17 mm
